Reference: patent US7560439B2, “Method for increasing the gene expression of transfected genes” (Sigma-Tau Industrie Farmaceutiche Riunite S.p.A., priority 2000, dated 2009)
Values joined by “and” are separate entries in the source; they are usually repeats but may differ in a detail not shown here. Equal values may be shown once.

Assays:
[1] = system: luciferase expression from transfected pRL-CMV plasmid in HeLa cells; experiment: Luciferase assay in HeLa cells transiently transfected with pRL-CMV plasmid; assay type: cell-based; settings: for RLU/mg mean: HeLa 100000/12-well plates, 1.5 μg/well
Procedure: Cell cultures. The uterine cervical carcinoma cell line HeLa, ATCC was used. The cells were cultured in RPMI 1640 Medium (eurobio), containing antibiotics and 10% foetal calf serum.
Treatment with acetyl-L-carnitine (ALC). 4×10^6 and 5×10^6 cells cultured in a medium containing ALC at final concentrations of 5 mM and 10 mM, respectively, were seeded in two 125 cm^3 flasks, whereas 2×10^6 cells not treated with ALC were plated in a 75 cm^3 flask. The treatment was repeated after 48 h (coinciding with the seeding of the cells for transfection) and after 72 h (at the end of transfection) and was also repeated after 120 h only in the case of samples transfected for lysis at 72 h.
Transient transfection of pRL-CMV plasmid. The cells were seeded for transfection 24 h before in 12-well plates (Corning), in amounts corresponding to 10^5 cells per well. The transfection was carried out in triplicate for each sample using the liposome DOTAP (Boehringer-Mannheim, Indianapolis, Ind.) and the plasmid pRL-CMV (Promega cat. N° E2261). In brief, 1.5 μg/well of DNA and 9.2 μM/well of liposome were used per sample, considering a final volume of 1050 μl/sample; the transfection mixture (25 μl /sample) was left at ambient temperature for 30 min and then HBS 2× (20 mM HEPES, 150 mM NaCl, pH 7.4) was added in amounts of 25 μl/ sample, and 50 μl/sample of the solution thus obtained was added to the cells for 5 hours. After carrying out three washings with PBS (phosphate buffer pH 7.4) without calcium and magnesium, the cells were cultured in growth medium containing ALC at the concentrations indicated in the treatments up to the time of cell lysis for the luciferase assay. As a control, naked DNA was added in a 1× HBS solution.
The cells were washed with PBS (phosphate buffer pH 7.4) without calcium and magnesium and subjected to lysis by means of the addition of 200 μl of lysis buffer contained in the GeneLux L002-100 kit (Wallac) used for the luciferase assay. After 20 min, total proteins were collected and 10 μl of each sample were assayed for luciferase, following the procedures indicated in the kit; the assay was carried out in 96-multiwell plates using the Victor^2 luminometer (Wallac). The luminescence readings obtained, expressed in relative light units (RLU), were normalised for mg of total proteins, calculated using the Bradford Method.

[2] = system: transfected intracellular plasmidic DNA (pRL-CMV) in HeLa cells; experiment: Slot blot quantification of transfected intracellular plasmidic DNA; assay type: cell-based
Procedure: To verify if the positive effect of ALC on luciferase activity was related to an activation of transcriptional machinery or to an increasing of cell permeability, we decided to quantify the total amount of transfected intracellular plasmidic DNA by Slot blot analysis.
Cell culture. Cervical carcinoma cell line HeLa (ATCC) were maintained in RPMI medium (Europio) supplemented with 10% foetal calf serum, 1% P/S in a humidified atmosphere with 5% CO2 ALC treatment 5×10^6 cells were plated in a 125-cm^3 flask and maintained in RPMI, supplemented as described above, containing ALC at two concentrations (5 mM and 10 mM) 4 days before transfection. The treatment was repeated at the end of transfection. Untreated cells were cultured in the same condition and used as control.
Transient Expression of pRL-CMV. 10^5 cells/well were plated 1 day before transfection in 12 multiwells plate (Corning). DOTAP liposome (Boehringer-Mannheim, Indianapolis, Ind.) and pRL-CMV plasmid (Promega cat. N° E2261) were used for transfection, 6 wells/sample. Briefly, 1.5 μg/well of DNA and a water solution of liposome at 9.2 μM were mixed at room temperature (25 μl/sample) to form DNA-liposome complex. After incubation for 30 min, the same volume/well of HBS 2× (20 mM HEPES, 150 mM NaCl, pH 7.4) was added and the transfection mixture was aliquotated (50 μl/well in supplemented medium). The cells were incubated with the complex for 5 h and the complex removed by washing with PBS (phosphate-buffered saline, pH 7.4, Ca^++ and Mg^++ free). Cells were maintained in supplemented medium, containing ALC, for 24h and then used for analysis. Nude DNA in HBS 1× (pRL-CMV) was transfected as control.
DNA extraction. Total cellular DNA was extracted by alkaline lysis from transfected cells according to the method reported by Maniatis. After washing with PBS, cells were collected with PBS (1 ml/well) and centrifuged at 1500×g for 10 min at r.t.
According to protocol, each pellet, placed on ice, was lysed using: 100 μl of solution I [50 mM glucose, 25 mM Tris-HCl (pH=8), 10 mM EDTA (pH=8)], 200 μl of solution II [0.2 N NaOH, 1% SDS], 150 μl of solution III (5M potassium acetate, glacial acetic acid]. After centrifugation at 12000×g for 5 min at 4° C., surnatant was collected and DNA was precipitated with EtOH. Pellet was resuspended in TE 1× (50 μl/sample).
Probe labelling. The probe, the luciferase gene, was obtained by digestion of pRL-CMV with HindIII for 2 h at 37° C. and then with BamHI in the same condition. After digestion, the mixture was electrophoresed on 0.8% agarose gel in TAE 1× buffer (40 mM Tris-HCl (pH 7.8), 1.1 mM EDTA and 37 mM sodium acetate) and the fragment corresponding to luciferase gene was isolated by excision. The labelling of luciferase gene was performed using the Rediprime II DNA labelling system (Amersham Pharmacia biotech, cat n. RPN 1633) and Redivue stabilised [α-^32P]dCTP (Amersham Pharmacia biotech, cat n. AA 0005) according to purchased protocol.
Slot Blot. DNA samples were absorbed on positively charged Nylon membrane (Boehringer, cat. n. 1209299) using Biorad Slot Blot apparatus. The DNA was linked to the filter by U.V. Stratalinker-2400 (Stratagene). After pre-incubation of the filter with QuikHyb Hybridization Solution (Stratagene, cat. n. 201220) for 20 min at 68° C., 2.5×10^6 cpm/ml of labelled probe was added, after boiling, with salmon sperm DNA, for 2 min. The hybridization was performed at 68° C. for 1 h, and then the filter was washed twice with buffer I (SSC 2×, SDS 0.1%) for 15 min at room temperature and then with buffer II (SSC 0.1×, SDS 0.1%) for 30 min at 60° C. The filter was exposed to “Phosphor Imager” box and then analysed by densitometry using a IPlab Gel software.

[3] = Dotap/DNA complex + ALC 5 mM, slots 19-24
[4] = Dotap/DNA complex + ALC 10 mM, slots 31-36
[5] = nude DNA + ALC 5 mM, slots 13-18

CC(=O)O[C@H](CC(=O)[O-])C[N+](C)(C)C [ALC, acetyl L-carnitine]
RLU/mg mean ([1]; 5 mM ALC + ETS (no Dotap)): 17,025 RLU/mg
RLU/mg mean ([1]; 5 mM ALC + LUC (no Dotap)): 18,060 RLU/mg
RLU/mg mean ([1]; 5 mM ALC + dota + LUC): 779,340 RLU/mg
RLU/mg mean ([1]; 5 mM ALC + dotap + ETS): 22,411 RLU/mg
increase of mean RLU per mg of total proteins as compared to untreated samples ([1]; 5 mM ALC, lysates at 24 h): approximately 1.6 fold
RLU/mg mean ([1]; 10 mM ALC + ETS (no Dotap)): 17,724 RLU/mg
RLU/mg mean ([1]; 10 mM ALC + LUC (no Dotap)): 20,481 RLU/mg
RLU/mg mean ([1]; 10 mM ALC + dotap + ETS): 20,520 RLU/mg
RLU/mg mean ([1]; 10 mM ALC + dotap + LUC): 750,034 RLU/mg
luciferase expression compared with 5 mM ALC ([1]; 10 mM ALC, lysates at 24 h): no additional increase
RLUs per mg of proteins, treated vs untreated samples ([1]; lysates at 48 h after transfection): no significant differences
luciferase expression ([1]; lysates at 72 h): no luciferase expression
Slot blot densitometry vs untreated ([2]; 10 mM ALC): little decrease
Slot blot densitometry, transfected cells in presence vs absence of ALC ([2]; 24 h after transfection): no difference
densitometric volume, mean [2, 3]: 240634.5 relative units
densitometric volume, single values [2, 3]: 222013 relative units and 255756 relative units and 253422 relative units and 234654 relative units and 239053 relative units and 238909 relative units
densitometric volume, mean [2, 4]: 165345 relative units
densitometric volume, single values [2, 4]: 173870 relative units and 225644 relative units and 116848 relative units and 114911 relative units and 157762 relative units and 203035 relative units
densitometric volume, mean ([2]; Nude DNA + ALC 10 mM, slots 25-30): 52595.2 relative units
densitometric volume, mean [2, 5]: 61441.5 relative units
densitometric volume, single values [2, 5]: 59846 relative units and 58324 relative units and 61431 relative units and 70373 relative units and 63045 relative units and 55630 relative units
